Results published in PubChem BioAssay (NCI).
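Test compounds were applied to cells in 96-well plates for 48 hours at 5 doses. TGI denotes the concentration required for complete inhibition of growth.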

Each compound was assayed on UACC-257 melanoma (assay: DTP human tumour cell line panel, 48 h).

`CCCCCCCCCCCCCCCc1nc(=S)[nH][nH]1` and `CCCCCCCCC(O)c1ccc(/C=C\C(O)CCCC(=O)O)s1` (stereo unspecified) cannot be ordered by TGI: over 100 µM for the first, over 100 µM for the second.

`O=C1OC(=O)C([Se]c2ccccc2)=C1[Se]c1ccccc1` and `CCOP(=O)(O)C(Nc1ccc(N=Nc2ccccc2)cc1)c1cccc(C(Nc2ccc(N=Nc3ccccc3)cc2)P(=O)(O)OCC)c1` (stereo unspecified) cannot be ordered by TGI: over 100 µM for the first, over 100 µM for the second.

`N#CCc1cccc(CC#N)c1Br` and `COc1cc([C@@H]2c3cc4c(cc3[C@@H](NCc3cccc(C#N)c3)C3COC(=O)[C@@H]32)OCO4)cc(OC)c1O` (stereo partly specified) cannot be ordered by TGI: over 100 µM for the first, over 100 µM for the second.

`COC(=O)c1c(O)ccc2c1c1c(n2Cc2cc(OC)cc(OC)c2)C(=O)c2ccccc2C1=O` showed a TGI of over 100 µM.

These compounds were tested on NCI-H522 lung (assay: DTP human tumour cell line panel, 48 h).

Compared with `CCCCCCCCCCCCCCCc1nc(=S)[nH][nH]1`, `CCCCCCCCC(O)c1ccc(/C=C\C(O)CCCC(=O)O)s1` (stereo unspecified) is higher in TGI: 68.2 µM for the first, over 100 µM for the second.

`O=C1OC(=O)C([Se]c2ccccc2)=C1[Se]c1ccccc1` and `CCOP(=O)(O)C(Nc1ccc(N=Nc2ccccc2)cc1)c1cccc(C(Nc2ccc(N=Nc3ccccc3)cc2)P(=O)(O)OCC)c1` (stereo unspecified) cannot be ordered by TGI: over 100 µM for the first, over 100 µM for the second.

Going from `N#CCc1cccc(CC#N)c1Br` to `COc1cc([C@@H]2c3cc4c(cc3[C@@H](NCc3cccc(C#N)c3)C3COC(=O)[C@@H]32)OCO4)cc(OC)c1O` (stereo partly specified), the TGI falls from over 100 µM to 3.56 µM.

Compound `COC(=O)c1c(O)ccc2c1c1c(n2Cc2cc(OC)cc(OC)c2)C(=O)c2ccccc2C1=O` has a TGI of 20.9 µM.

Each compound was assayed on PC-3 prostate (assay: DTP human tumour cell line panel, 48 h).

First: CCOP(=O)(O)C(Nc1ccc(N=Nc2ccccc2)cc1)c1cccc(C(Nc2ccc(N=Nc3ccccc3)cc2)P(=O)(O)OCC)c1 (stereo unspecified)
Second: COC(=O)c1c(O)ccc2c1c1c(n2Cc2cc(OC)cc(OC)c2)C(=O)c2ccccc2C1=O
The TGI of the first is 3.5-fold higher: 67.5 µM for the first, 19.3 µM for the second.

What follows are compounds tested on CCRF-CEM leukemia (assay: DTP human tumour cell line panel, 48 h).

`CCCCCCCCCCCCCCCc1nc(=S)[nH][nH]1` and `CCCCCCCCC(O)c1ccc(/C=C\C(O)CCCC(=O)O)s1` (stereo unspecified) cannot be ordered by TGI: over 100 µM for the first, over 100 µM for the second.

First: O=C1OC(=O)C([Se]c2ccccc2)=C1[Se]c1ccccc1
Second: CCOP(=O)(O)C(Nc1ccc(N=Nc2ccccc2)cc1)c1cccc(C(Nc2ccc(N=Nc3ccccc3)cc2)P(=O)(O)OCC)c1 (stereo unspecified)
The TGI of the first is higher: over 100 µM for the first, 96.7 µM for the second.

`N#CCc1cccc(CC#N)c1Br` and `COc1cc([C@@H]2c3cc4c(cc3[C@@H](NCc3cccc(C#N)c3)C3COC(=O)[C@@H]32)OCO4)cc(OC)c1O` (stereo partly specified) cannot be ordered by TGI: over 100 µM for the first, over 100 µM for the second.

`COC(=O)c1c(O)ccc2c1c1c(n2Cc2cc(OC)cc(OC)c2)C(=O)c2ccccc2C1=O` showed a TGI of 78.6 µM.

Each compound was assayed on OVCAR-8 ovarian (assay: DTP human tumour cell line panel, 48 h).

`O=C1OC(=O)C([Se]c2ccccc2)=C1[Se]c1ccccc1` and `CCOP(=O)(O)C(Nc1ccc(N=Nc2ccccc2)cc1)c1cccc(C(Nc2ccc(N=Nc3ccccc3)cc2)P(=O)(O)OCC)c1` (stereo unspecified) cannot be ordered by TGI: over 100 µM for the first, over 100 µM for the second.

First: CCCCCCCCC(O)c1ccc(/C=C\C(O)CCCC(=O)O)s1 (stereo unspecified)
Second: COC(=O)c1c(O)ccc2c1c1c(n2Cc2cc(OC)cc(OC)c2)C(=O)c2ccccc2C1=O
The TGI of the first is higher: over 100 µM for the first, 90.3 µM for the second.

Going from `N#CCc1cccc(CC#N)c1Br` to `COc1cc([C@@H]2c3cc4c(cc3[C@@H](NCc3cccc(C#N)c3)C3COC(=O)[C@@H]32)OCO4)cc(OC)c1O` (stereo partly specified), the TGI falls from over 100 µM to 4.56 µM.

These compounds were tested on U251 CNS (assay: DTP human tumour cell line panel, 48 h).

`CCCCCCCCCCCCCCCc1nc(=S)[nH][nH]1` and `CCCCCCCCC(O)c1ccc(/C=C\C(O)CCCC(=O)O)s1` (stereo unspecified) cannot be ordered by TGI: over 100 µM for the first, over 100 µM for the second.

`O=C1OC(=O)C([Se]c2ccccc2)=C1[Se]c1ccccc1` and `CCOP(=O)(O)C(Nc1ccc(N=Nc2ccccc2)cc1)c1cccc(C(Nc2ccc(N=Nc3ccccc3)cc2)P(=O)(O)OCC)c1` (stereo unspecified) cannot be ordered by TGI: over 100 µM for the first, over 100 µM for the second.

Compared with `N#CCc1cccc(CC#N)c1Br`, `COc1cc([C@@H]2c3cc4c(cc3[C@@H](NCc3cccc(C#N)c3)C3COC(=O)[C@@H]32)OCO4)cc(OC)c1O` (stereo partly specified) is lower in TGI: over 100 µM for the first, 1.93 µM for the second.

`COC(=O)c1c(O)ccc2c1c1c(n2Cc2cc(OC)cc(OC)c2)C(=O)c2ccccc2C1=O` was tested, and the TGI was 28.2 µM.

The compounds below were run on HOP-18 NSCLC (assay: DTP human tumour cell line panel, 48 h).

`O=C1OC(=O)C([Se]c2ccccc2)=C1[Se]c1ccccc1` and `COc1cc([C@@H]2c3cc4c(cc3[C@@H](NCc3cccc(C#N)c3)C3COC(=O)[C@@H]32)OCO4)cc(OC)c1O` (stereo partly specified) cannot be ordered by TGI: over 100 µM for the first, over 100 µM for the second.

In the case of `CCCCCCCCC(O)c1ccc(/C=C\C(O)CCCC(=O)O)s1` (stereo unspecified), the TGI is reported as over 100 µM.

The compounds below were run on SW-620 colon (assay: DTP human tumour cell line panel, 48 h).

`O=C1OC(=O)C([Se]c2ccccc2)=C1[Se]c1ccccc1` and `CCOP(=O)(O)C(Nc1ccc(N=Nc2ccccc2)cc1)c1cccc(C(Nc2ccc(N=Nc3ccccc3)cc2)P(=O)(O)OCC)c1` (stereo unspecified) cannot be ordered by TGI: over 100 µM for the first, over 100 µM for the second.

`CCCCCCCCC(O)c1ccc(/C=C\C(O)CCCC(=O)O)s1` (stereo unspecified) and `COC(=O)c1c(O)ccc2c1c1c(n2Cc2cc(OC)cc(OC)c2)C(=O)c2ccccc2C1=O` cannot be ordered by TGI: over 100 µM for the first, over 100 µM for the second.

Going from `N#CCc1cccc(CC#N)c1Br` to `COc1cc([C@@H]2c3cc4c(cc3[C@@H](NCc3cccc(C#N)c3)C3COC(=O)[C@@H]32)OCO4)cc(OC)c1O` (stereo partly specified), the TGI falls from over 100 µM to 11.1 µM.

Each compound was assayed on UACC-62 melanoma (assay: DTP human tumour cell line panel, 48 h).

Work on `CCCCCCCCCCCCCCCc1nc(=S)[nH][nH]1` yielded a TGI of over 100 µM.
